In patent publication US6150355A, “Phenylpiperidine derivative” (Kyowa Hakko Kogyo Co., Ltd., priority 1995, dated 2000):

Legend:
male mice = assay: Evaluation Test of Analgesic Activity (acetic acid intraperitoneally, number of risings); format: in vivo; details: Mus musculus, po, 10 mg/kg orally, after 1 hour 0.7% acetic acid i.p. 0.1 ml per 10 g, number of risings for 5 minutes, 10 minutes after, vs control, read-out: Inhibition Rate
Description: Evaluation Test of Analgesic Activity
Test compounds (10 mg/kg) were orally administered to groups of male mice, each group consisting of 4 to 12 mice, and after 1 hour, the mice were administered intraperitoneally with a 0.7% acetic acid aqueous solution in a dose of 0.1 ml per weight of 10 g. Then, the number of the risings manifested for 5 minutes 10 minutes after the administration was compared with a control group to calculate inhibition rate.

ddy male mice = assay: Acute Toxicity Test (minimum lethal dose); format: in vivo; details: intraperitoneal, ddy male mice 20±1 g, mortality seven days after administration
From the text: Test compounds were intraperitoneally administered to groups of ddy male mice weighing 20±1 g.

SMILES | inhibition in vivo at 10 mg/kg (male mice) [%] | minimum lethal dose (MLD) (ddy male mice) [mg/kg]
Cc1ccc2c(c1)C(N1CCC(O)(c3ccccc3)CC1)c1ccccc1CO2 (centres unmarked) [Compound 2, 11-(4-Hydroxy-4-phenylpiperidine-1-yl)-2-methyl-6,11-dihydrodibenzo[b,e] oxepine] | 83 | > 100
Cc1cccc(C2(O)CCN(C3c4ccccc4COc4ccc(C)cc43)CC2)c1 (centres unmarked) [Compound 3, 11-[4-Hydroxy-4-(3-methylphenyl)piperidine-1-yl]-2-methyl-6,11-dihydrodibenzo[b,e] oxepine] | 90 | > 100
Cc1ccc2c(c1)C(N1CCC(O)(c3cccc(C(F)(F)F)c3)CC1)c1ccccc1CO2 (centres unmarked) [Compound 4, 11-[4-Hydroxy-4-(3-trifluoromethylphenyl)piperidine-1-yl]-2-methyl-6,11-dihydrodibenzo[b,e] oxepine] | 96 | > 100
Cc1ccc2c(c1)C(N1CCC(O)(c3ccc(Cl)cc3)CC1)c1ccccc1CO2 (centres unmarked) [Compound 5, 11-[4-(4-Chlorophenyl)-4-hydroxypiperidine-1-yl]-2-methyl-6,11-dihydrodibenzo[b,e] oxepine] | 72 | > 100
CCc1ccc2c(c1)C(N1CCC(O)(c3ccccc3)CC1)c1ccccc1CO2 (centres unmarked) [Compound 8, 2-Ethyl-11-(4-hydroxy-4-phenylpiperidine-1-yl)-6,11-dihydrodibenzo[b,e] oxepine] | 94 | > 100
OCc1ccc2c(c1)C(N1CCC(O)(c3ccccc3)CC1)c1ccccc1CO2 (centres unmarked) [Compound 19, 11-(4-Hydroxy-4-phenylpiperidine-1-yl)-2-hydroxymethyl-6,11-dihydrodibenzo[b,e] oxepine] | 76 | > 100
CC(O)c1ccc2c(c1)C(N1CCC(O)(c3ccccc3)CC1)c1ccccc1CO2 (centres unmarked) [Compound 22, 11-(4-Hydroxy-40phenylpiperidine-1-yl)-2-(1-hydroxyethyl)-6,11-dihydrodibenzo[b,e] oxepine] | 100 | > 100
OCc1ccc2c(c1)C(N1CCC(O)(c3cccc(C(F)(F)F)c3)CC1)c1ccccc1CO2 (centres unmarked) [Compound 24, 11-[4-Hydroxy-4-(3-trifluoromethylphenyl)piperidine-1-yl]-2-hydroxymethyl-6,11-dihydrodibenzo[b,e] oxepine] | 100 | > 100
Cc1ccc2c(c1)C(N1CCC(O)(c3ccccc3)CC1)c1cccnc1CO2 (centres unmarked) [Compound 27, 5-(4-Hydroxy-4-phenylpiperidine-1-yl)-7-methyl-5,11-dihydrobenzo[3,4-b] oxepinopyridine] | 100 | –
